Key:
corn = experiment: Test A pre-/postemergence herbicide test; type: in vivo, Zea mays
Outline: (§1)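 Planted in loam–sand blend; treated the same day preemergence by directed soil spray, while separately grown plants at one- to two-leaf stage got postemergence spray. Compared visually with untreated controls after approximately 10 days; 100 means complete control.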

ducksalad = experiment: Test B flooded paddy test; type: in vivo, Heteranthera limosa; details: 1000 g ai/ha, Flood; scale of 0 to 100 where 0 is no effect and 100 is complete control
Outline: (§2)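 Plants grown to 2-leaf stage; pots flooded 3 cm above soil and compound applied directly into paddy water, depth held throughout. Visual rating against untreated controls after 13 to 15 days in greenhouse, 0 (no effect) to 100 (complete control).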

barnyardgrass [1] = experiment: Test A pre-/postemergence herbicide test; type: in vivo, Echinochloa crus-galli
Outline: as §1

morningglory = experiment: Test C pre-/postemergence herbicide test; type: in vivo, Ipomoea coccinea; details: Preemergence
Outline: (§3)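 Test compounds, formulated in a surfactant-containing non-phytotoxic solvent blend, are applied to seeded loam/sand soil (preemergence) and to young plants at the 1- to 4-leaf stage in peat-based medium (postemergence). Plants stay 13 to 15 days under greenhouse conditions, then are scored visually relative to controls, 0 = no effect, 100 = complete control.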

crabgrass, large = experiment: Test C pre-/postemergence herbicide test; type: in vivo, Digitaria sanguinalis; details: Preemergence
Outline: as §3

soybean = experiment: Test C pre-/postemergence herbicide test; type: in vivo, Glycine max; details: Preemergence
Outline: as §3

barnyardgrass [2] = experiment: Test C pre-/postemergence herbicide test; type: in vivo, Echinochloa crus-galli; details: Preemergence
Outline: as §3

giant foxtail = experiment: Test A pre-/postemergence herbicide test; type: in vivo, Setaria faberii
Outline: as §1

blackgrass = experiment: Test C pre-/postemergence herbicide test; type: in vivo, Alopecurus myosuroides; details: Preemergence
Outline: as §3

barnyardgrass [3] = experiment: Test B flooded paddy test; type: in vivo, Echinochloa crus-galli; details: 1000 g ai/ha, Flood; scale of 0 to 100 where 0 is no effect and 100 is complete control
Outline: as §2

ragweed = experiment: Test C pre-/postemergence herbicide test; type: in vivo, Ambrosia elatior; details: Preemergence
Outline: as §3

rice = experiment: Test B flooded paddy test; type: in vivo, Oryza sativa; details: 1000 g ai/ha, Flood; scale of 0 to 100 where 0 is no effect and 100 is complete control
Outline: as §2

sedge, umbrella = experiment: Test B flooded paddy test; type: in vivo, Cyperus difformis; details: 1000 g ai/ha, Flood; scale of 0 to 100 where 0 is no effect and 100 is complete control
Outline: as §2

[4] = Postemergence, 125 g ai/ha, 0 to 100 scale, 0 is no effect, 100 is complete control
[5] = Postemergence, 500 g ai/ha, 0 to 100 scale (0 no effect, 100 complete control)
[6] = Preemergence, 125 g ai/ha, 0 to 100 scale where 0 is no effect and 100 is complete control
[7] = preemergence, 500 g ai/ha, 0 to 100 scale, 0 is no effect and 100 is complete control
[8] = 31 g ai/ha, scale 0 to 100, 0 is no effect and 100 is complete control
[9] = 62 g ai/ha, scale 0 to 100 (0 no effect, 100 complete control)
[10] = 125 g ai/ha, scale 0 to 100 (0 no effect, 100 complete control)

O=C1NCC(c2ccc(C(F)(F)F)c(F)c2)C1C(=O)Nc1ccccc1F (racemic) [Compound 246]
75: Plant response rating, Barnyardgrass (barnyardgrass [2]; 62 g ai/ha, scale 0 to 100) | Plant response rating, Barnyardgrass (barnyardgrass [2]; [10])
5: Morningglory plant response rating (morningglory; [8]) | Morningglory plant response rating (morningglory; [9]) | Plant response rating (scale of 0 to 100), Morningglory (morningglory; 250 g ai/ha) | Plant response rating, Blackgrass (blackgrass; [10])
30: Plant response rating, Corn (corn; [5])
95: Plant response rating, Ducksalad (ducksalad) | Crabgrass, Large plant response rating (crabgrass, large; [8]) | Crabgrass, Large plant response rating (crabgrass, large; [9]) | Plant response rating, Crabgrass, Large (crabgrass, large; [10])
80: Plant response rating, Barnyardgrass (barnyardgrass [1]; [6]) | Plant response rating, Foxtail, Giant (giant foxtail; [5]) | Plant response rating, Foxtail, Giant (giant foxtail; [6])
60: Plant response rating, Barnyardgrass (barnyardgrass [3])
10: Plant response rating, Morningglory (morningglory; [10]) | Plant response rating (scale of 0 to 100), Soybean (soybean; 250 g ai/ha)
0: Plant response rating, Corn (corn; [6]) | Plant response rating, Corn (corn; [7]) | Soybean plant response rating (soybean; [8]) | Soybean plant response rating (soybean; [9]) | Plant response rating, Soybean (soybean; [10]) | Blackgrass plant response rating (blackgrass; [8]) | Plant response rating, Blackgrass (blackgrass; 62 g ai/ha, scale 0 to 100) | Ragweed plant response rating (ragweed; [8]) | Ragweed plant response rating (ragweed; [9]) | Plant response rating, Ragweed (ragweed; [10])
90: Plant response rating, Barnyardgrass (barnyardgrass [1]; [7]) | Plant response rating (scale of 0 to 100; 0 is no effect, 100 is complete control), Barnyardgrass (barnyardgrass [2]; 250 g ai/ha) | Plant response rating, Foxtail, Giant (giant foxtail; [7])
70: Plant response rating, Barnyardgrass (barnyardgrass [1]; [4]) | Plant response rating, Barnyardgrass (barnyardgrass [1]; [5]) | Plant response rating (scale of 0 to 100), Blackgrass (blackgrass; 250 g ai/ha)
20: Plant response rating, Corn (corn; [4]) | Barnyardgrass plant response rating (barnyardgrass [2]; [8]) | Plant response rating, Rice (rice) | Plant response rating, Sedge, Umbrella (sedge, umbrella)
98: Plant response rating (scale of 0 to 100), Crabgrass, Large (crabgrass, large; 250 g ai/ha)
40: Plant response rating, Foxtail, Giant (giant foxtail; [4]) | Plant response rating (scale of 0 to 100), Ragweed (ragweed; 250 g ai/ha)
